{"source": "patent US20190117586A1", "about": "“METHODS OF PREVENTING OR TREATING PARKINSON'S DISEASE BY THE FARNESYLATION OF PARIS” (The Johns Hopkins University, priority 2016, published 2019)", "key": {"[1]": {"test": "Farnesol concentration in brain and plasma of farnesol diet fed mice by mass spectrometry", "type": "in vivo", "conditions": "0.5% w/w trans-farnesol in AIN-76A diet; for concentration at 7 days: mouse, oral, 0.5 % w/w in diet"}, "PPARα": {"target": "T1, PPARα (Homo sapiens, UniProt Q07869)", "T1 sequence (Q07869 1-468)": "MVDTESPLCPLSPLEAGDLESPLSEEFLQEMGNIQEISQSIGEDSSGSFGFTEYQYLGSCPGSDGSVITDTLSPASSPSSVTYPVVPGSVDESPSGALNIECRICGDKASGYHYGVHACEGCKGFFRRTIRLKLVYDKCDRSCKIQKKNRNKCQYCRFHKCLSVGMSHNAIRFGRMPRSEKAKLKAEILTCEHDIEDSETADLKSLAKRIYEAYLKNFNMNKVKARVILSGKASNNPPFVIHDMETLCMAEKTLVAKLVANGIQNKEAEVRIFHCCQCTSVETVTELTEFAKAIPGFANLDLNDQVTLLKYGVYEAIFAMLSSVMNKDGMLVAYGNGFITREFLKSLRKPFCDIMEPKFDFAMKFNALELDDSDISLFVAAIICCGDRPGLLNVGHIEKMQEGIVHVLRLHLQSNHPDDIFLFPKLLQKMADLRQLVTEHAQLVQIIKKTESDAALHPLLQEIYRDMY", "conditions": "cited from earlier work"}, "[2]": {"tested_on": "PGC-1α and PGC-1α's target genes", "test": "mRNA of PGC-1α and target genes in STR, HIP and SN of farnesol-fed mice", "type": "in vivo", "description": "Farnesol is a natural organic compound in both plants and animals. Phosphate derivatives of farnesol are the building blocks of cholesterol in mammalian cells. […] The level of PGC-1α was measured from different brain regions in farnesol-fed mice. PGC-1α levels increase 2.7-fold in the olfactory bulb (OB), 1.6-fold in hippocampus (HIP), and 1.7-fold in substantia nigra (SN) as compared to that of mice on normal mouse chow (FIGS. 2H and 2I). […] In addition, mRNA levels of PGC-1α and a variety of PGC-1α's target genes in the STR, HIP, and SN of farnesol-fed mice were measured."}, "PGC-1α promoter": {"tested_on": "PGC-1α promoter", "test": "PGC-1α promoter activity with PARIS WT or PARIS C631S mutant", "type": "cell-based", "conditions": "PARIS WT; not observed with PARIS C631S mutant"}, "PGC-1α target genes": {"tested_on": "PGC-1α target genes", "test": "mRNA of PGC-1α target genes in SH-SY5Y cells by real-time qRT-PCR", "type": "cell-based", "description": "(§1) The 9 compounds that activate the PGC-1α promoter in the presence of PARIS were evaluated to determine which compounds induce PGC-1α levels in SH-SY5Y cells (FIGS. 2A and 2B). […] The mRNA level of PGC-1α target genes including copper/zinc superoxide dismutase (SOD1), manganese SOD (SOD2), glutathione peroxidase (GPx1), catalase (CAT), nuclear respiratory factor-1 (NRF-1), mitochondrial transcription factor A (TFAM), mitochondrial uncoupling proteins (UCP2 and UCP3), and the oxidative phosphorylation regulators, ATP5b, cytochrome C (CytC) and cytochrome C oxidase (COX II and IV) were determined by real-time quantitative RT-PCR (qRT-PCR) (FIG. 2C)."}, "PPARα and PPARγ": {"tested_on": "PPARα and PPARγ", "test": "PPARα and PPARγ levels, target genes and PPAR responsive element in SH-SY5Y cells", "type": "cell-based"}, "PARIS [3]": {"tested_on": "PARIS", "test": "Subcellular fractionation of PARIS by immunoblot", "type": "cell-based", "description": "(§2) To confirm that farnesylation of PARIS requires FTase, siRNA-FTase α knockdown or FTI-277 inhibition of FTase in the setting of PARIS overexpression was performed (FIG. 4C). […] To ascertain whether the farnesylation of PARIS affects the DNA binding activity of PARIS on the IRS motif of the PGC-1α promoter, a chromatin immunoprecipitation assay (ChIP) was performed from SH-SY5Y transfected with GFP-tagged PARIS WT or GFP-tagged PARIS C631S. […] To examine the possibility that the farnesylation of PARIS alters its subcellular distribution, subcellular fractionation was used to monitor the levels of PARIS in cytosolic, membrane, soluble nuclear, and chromatin-bound nuclear fractions by immunoblot analysis (FIG. 4F)."}, "PARIS [4]": {"tested_on": "PARIS", "test": "PARIS farnesylation in SH-SY5Y cells transfected with Flag-tagged PARIS (immunoprecipitation)", "type": "cell-based", "description": "(§3) Geraniol or geranylgeraniol have no effect on PGC-1α levels (FIG. 3H).\nas §2"}, "PGC-1α [5]": {"tested_on": "PGC-1α", "test": "PGC-1α levels in SH-SY5Y cells by immunoblot", "type": "cell-based", "conditions": "SH-SY5Y cells", "description": "as §1, §3"}, "PGC-1α [6]": {"tested_on": "PGC-1α", "test": "Parkin knockdown (lentiviral shRNA-parkin) SH-SY5Y cells", "type": "cell-based", "description": "Knockdown of parkin leads to a 2.7 fold increase in the level of PARIS and a 65% decrease of PGC-1α (FIGS. 2D and 2E). […] The mRNA levels of PGC-1α and its target genes were assessed after knocking down parkin by real-time qRT-PCR."}, "[7]": {"tested_on": "AAV-PARIS injected C57BL/6J mice", "type": "in vivo"}, "[8]": {"conditions": "farnesol fed versus normal chow fed mice"}, "[9]": {"conditions": "SH-SY5Y, Flag-tagged PARIS, farnesol treatment 48 hours"}, "[10]": {"conditions": "farnesol diet from one week prior to injection"}}}
{"smiles": "CC(C)=CCC/C(C)=C/CC/C(C)=C/CO", "note": "[farnesol, (2E,6E)-3,7,11-trimethyldodeca-2,6,10-trien-1-ol]", "values": [{"measurement": "increase of farnesol level in the brain versus control diet fed mice", "setting": "[1]; 7 days", "result": 37, "unit": "%"}, {"measurement": "concentration at 7 days", "setting": "[1]; brain", "result": 155, "unit": "ng/g"}, {"measurement": "concentration at 7 days", "setting": "[1]; plasma, non-detectable on control diet", "result": 113, "unit": "ng/mL"}, {"measurement": "activation of PPARα in vitro", "setting": "PPARα", "result": "capable of activating"}, {"measurement": "mRNA levels of SOD2, TFAM, UCP2, and CYTC", "setting": "[2]; farnesol fed mice, SN, HIP, STR", "result": "exclusively increased in SN, but not in the HIP and STR"}, {"measurement": "mRNA level of PGC-1α in HIP, SN and STR", "setting": "[2]; [8]", "result": "significantly upregulated in the HIP and SN, but not in the STR"}, {"measurement": "mRNA levels of NRF-1, COX II, and COX IV", "setting": "[2]; [8]", "result": "upregulated in both HIP and SN"}, {"measurement": "PGC-1α promoter activity", "setting": "PGC-1α promoter", "result": "increase of PGC-1α promoter activity"}, {"measurement": "PGC-1α, SOD1, and ATP5B mRNA levels", "setting": "PGC-1α target genes", "result": "increased"}, {"measurement": "mRNA level of NRF-1", "setting": "PGC-1α target genes", "result": "robustly increased"}, {"measurement": "activation of a PPAR responsive element", "setting": "PPARα and PPARγ", "result": "fails to activate"}, {"measurement": "levels of PPARα and PPARγ protein and mRNA and target genes ACOX1, CPT-1A, MCAD, LCAD", "setting": "PPARα and PPARγ", "result": "fails to influence"}, {"measurement": "distribution of PARIS in cytoplasmic, membrane, and soluble nuclear fractions", "setting": "PARIS [3]", "result": "no change"}, {"measurement": "level of chromatin-bound PARIS", "setting": "PARIS [3]; PARIS WT or C631S", "result": "abolished the level of chromatin-bound PARIS WT but not PARIS C631S"}, {"measurement": "restoration of PGC-1α levels with PARIS C631S mutant", "setting": "PARIS [4]; PARIS C631S mutant", "result": "no effect"}, {"measurement": "farnesylation of FLAG-PARIS C631S mutant", "setting": "PARIS [4]; PARIS C631S mutant, in the presence of farnesol", "result": "no farnesylation"}, {"measurement": "PGC-1α level with PARIS WT", "setting": "PARIS [4]; PARIS WT", "result": "upregulation of PGC-1α"}, {"measurement": "farnesylation of FLAG-PARIS WT", "setting": "PARIS [4]; PARIS WT, farnesol treatment", "result": "farnesylation is increased"}, {"measurement": "PARIS farnesylation", "setting": "PARIS [4]; [9]", "result": "increases PARIS farnesylation in a dose-dependent manner"}, {"measurement": "PGC-1α accompanying PARIS farnesylation", "setting": "PARIS [4]; [9]", "result": "increase in PGC-1α"}, {"measurement": "PGC-1α level by immunoblot analysis", "setting": "PGC-1α [5]", "result": "significantly increased"}, {"measurement": "level of PGC-1α", "setting": "PGC-1α [6]", "result": "restores the level of PGC-1α"}, {"measurement": "level of parkin and PARIS", "setting": "PGC-1α [6]", "result": "without affecting the level of parkin and PARIS"}, {"measurement": "mRNA levels of SOD2, TFAM, ATP5B, CYTC, and COX II", "setting": "PGC-1α [6]; qRT-PCR", "result": "significantly increased"}, {"measurement": "reduction of mRNA of PGC-1α and NRF-1", "setting": "PGC-1α [6]; qRT-PCR", "result": "rescued"}, {"measurement": "levels of PARIS WT or PARIS C631S", "setting": "[7]; AAV injected mice, farnesol diet", "result": "did not affect"}, {"measurement": "amphetamine-induced rotation behavior", "setting": "[7]; AAV-PARIS WT, farnesol diet", "result": "restoration of amphetamine-induced rotation behavior"}, {"measurement": "dopamine neuronal survival, AAV-PARIS C631S mice", "setting": "[7]; [10]", "result": "no effect"}, {"measurement": "loss of dopamine neurons, AAV-PARIS WT mice", "setting": "[7]; [10]", "result": "completely prevents the loss of dopamine neurons"}, {"measurement": "farnesylated PARIS in AAV-PARIS WT compared to AAV-PARIS C631S injected mice", "setting": "[7]; farnesol fed mice, two weeks post-AAV injection", "result": "robustly observed"}]}
